Reference: ChEMBL document CHEMBL3507680, “University of Dundee, Gates Library screen for HepG2 cell viability”

experiment: Human HepG2 cell viability assay in 384 well format; type: toxicity, cell-based; parameters: dose 125 nL, time 70.5 hour; concentration not given beside the values; conditions: HepG2 cells, read-out: Inhibition

SMILES | cytotoxicity at 70.5 h
Cc1nnc(SCC(=O)Nc2csc3nc(=O)c(C)nn23)s1 | 7.9%
O=C(Cc1cnc(-c2c(Cl)cccc2Cl)s1)N1CCOCC1 | -13.9%
O=C(Cc1cnc(-c2c(Cl)cccc2Cl)s1)N1CCC2(CC1)OCCO2 | -14.1%
CC(C)NC(=O)CNC(=O)N1CCc2c([nH]c3ccc(Cl)cc23)C1 | -7.52%
O=C(CNC(=O)N1CCc2c([nH]c3ccc(Cl)cc23)C1)NC1CCCC1 | -0.711%
NC(=O)C1CCN(C(=O)Cc2cnc(-c3c(Cl)cccc3Cl)s2)CC1 | -13.5%
CCc1nc2c(c(C)c(C)n2Cc2cccnc2)c(N)c1C | 0.896%
O=C1CCCC2=C1C(c1ccc(Cl)cc1Cl)Nc1nonc1N2 (stereo not drawn) | -1.65%
CC(=O)N1CCN(C(=O)Cc2cnc(-c3c(Cl)cccc3Cl)s2)CC1 | -13.6%
Cc1nn2c(NC(=O)CSc3nccn3C)csc2nc1=O | 6.49%
CC(C)CNC(=O)Cc1cnc(-n2cccc2)s1 | -18.5%
CC(C)NC(=O)c1nc(COc2ccc3c(c2)OCO3)no1 | -8.71%
O=C1CCCC2=C1C(c1cccc(F)c1F)Nc1nonc1N2 (stereo not drawn) | 1.2%
N#CC1=C(N)Nn2c(nnc2-c2ccccc2F)S1 | -36.2%
Cc1nnc(SC2CCc3ccccc3NC2=O)n1C (stereo not drawn) | -23%
CN1CCN(CCCNC(=O)c2nc3ccccc3c(=O)[nH]2)CC1 | -19.4%
CC(C)CCNC(=O)Cc1cnc(-n2cccc2)s1 | -21%
CC(=O)Nc1ccc(OCc2noc(C(=O)N3CCCC3)n2)cc1 | -14.2%
CCC(C)[C@H](NC(=O)c1cc(F)ccc1-n1cnnn1)C(=O)OC (stereo partly drawn) | -13.4%
O=C(Cc1noc(C(=O)NCCO)n1)Nc1cccc(C(F)(F)F)c1 | -22.4%
COc1cc2c(cc1OC)C(=O)C(Sc1nnnn1C)C2 (stereo not drawn) | -18.6%
O=S1(=O)CCC(S(=O)(=O)c2cccc(S(=O)(=O)N3CCCC3)c2)C1 (stereo not drawn) | -12.1%
COc1ccccc1N1CCN(c2nc(N)nc3[nH]cnc23)CC1 | -11.3%

SMILES | cytotoxicity at 70.5 h
CC(C)c1ccc2c(c1)C1(CC(=O)Nc3[nH]ncc31)C(=O)N2C (stereo not drawn) | -19.6%
c1ccc(CNc2nc(N3CCOCC3)nc3nccnc23)cc1 | -12.1%
Cn1ccnc1SC1CCc2ccccc2NC1=O (stereo not drawn) | -23.5%
CCOC(=O)c1nc(CC(=O)Nc2ccccc2)no1 | -17.6%
COCC(=O)N(Cc1ccc2[nH]ccc2c1)C1CC1 | -25.2%
Cc1nc2oc(C(=O)N3CCCC3)c(N)c2c2c1CCCC2 | -16.9%
O=C(Cc1cnc(-n2cccc2)s1)NCCCO | -25%
CCOC(=O)c1nc(COc2c(C)occc2=O)no1 | -20.5%
Cc1cc(C)n(Cc2ccc(-c3noc(C(=O)NCCCO)n3)cc2)n1 | -21.4%
Cc1occc(=O)c1OCc1noc(C(=O)NCC2CC2)n1 | -16.6%
N#Cc1nc(COc2ccc3c(c2)OCO3)oc1NC1CC1 | -28.4%
C[C@@H](O)CNC(=O)c1nc(CC(=O)Nc2ccccc2)no1 | -19.3%
COC(=O)[C@H](CC(C)C)NC(=O)c1snnc1-c1ccc(OC)cc1 | 10.9%
Cc1nc(NC(=O)c2c(-n3cnnn3)sc3c2CCC3)sc1C | -5.79%
CC(=O)CSc1sc2c(O)cc(=O)[nH]c2c1C(N)=O | -12.7%
CN1C(=O)COc2ccc(C(=O)Cn3cnc4ccccc4c3=O)cc21 | -12%
COC(=O)c1cc2c(=O)n(C3CCCC3)ccc2nc1C | -15.4%
Cc1ccccc1CCC(=O)N1CCc2ncnc(NCCO)c2CC1 | -0.133%
O=C(NCc1nc(-c2ncccn2)no1)c1ccc(C2CCCO2)s1 (stereo not drawn) | 11.9%
O=C(O)CCn1ccc2c(nnc3c(-c4ccc(F)cc4)cnn32)c1=O | -24.9%
O=C(c1cc(Cn2ccc3ccccc32)[nH]n1)N1CCC[C@H]1CO | -0.0597%
O=C(Cc1cnccn1)N1C[C@H]2CC[C@@H]1CN(Cc1cscn1)C2 | -12.8%
O=C1COc2cc(C(=O)NS(=O)(=O)c3ccc(F)c(F)c3)ccc2N1 | 10.9%

SMILES | cytotoxicity at 70.5 h
Cc1nc2ccnn2c(C)c1CCC(=O)N1CCN(CCO)CC1 | -9.84%
O=C1COc2cc(C(=O)NS(=O)(=O)c3cc(Cl)ccc3Cl)ccc2N1 | -8.05%
O=C1COc2cc(C(=O)NS(=O)(=O)c3ccc(F)cc3F)ccc2N1 | -13.6%
Cc1cnc2c(S(=O)(=O)NCC3CCOC3)cccc2c1 (stereo not drawn) | -10.2%
CN(C)c1cc(C(=O)N2CCCC2c2cnn(C)c2)ccn1 (stereo not drawn) | 4.19%
CCCN(CC)c1ccc(C(=O)N2CCCC2c2cnn(C)c2)cn1 (stereo not drawn) | -5.94%
CN(C)c1ccc(C(=O)N2CCCC2c2cnn(C)c2)cn1 (stereo not drawn) | -2.8%
CCOc1ccc(C(=O)N2CCCC2c2cnn(C)c2)cn1 (stereo not drawn) | -5.51%
CCc1ncc2c(n1)CN(CC(=O)Nc1ccncc1)CC2 | -3.06%
Cc1ncc(C(=O)NCCNC(=O)c2ccccc2)s1 | -6.97%
CC(C)(C)c1ncc(C(=O)NCCNc2ncccn2)s1 | -4.56%
CC(=O)NCCNC(=O)c1cnc(C(C)(C)C)s1 | -8.27%
CN(CCOc1cccc(F)c1)Cc1nc2c(cnn2C)c(=O)[nH]1 | -8.53%
CNC(=O)NC(=O)CCN1CCN(c2ccc(C(=O)OC)cc2)CC1C (stereo not drawn) | -9.55%
CC(=O)N1CCC(C(=O)NCc2cc[nH]n2)(c2ccccc2)CC1 | -5.74%
CC(C)(C)c1ncc(C(=O)NC(C(N)=O)c2ccccc2)s1 (stereo not drawn) | 15.8%
O=C(NCc1cc[nH]n1)N1CCCC(N2CCCC2)C1 (stereo not drawn) | -4.82%
COc1c(CNC2CCN(c3ccccn3)CC2)c(C(C)C)nn1C | 5.04%
CC(C(=O)N1CCCN(c2ccccc2C#N)CC1)n1cccn1 (stereo not drawn) | -7.8%
CC(C(=O)N1CCCN(c2ccc(C#N)cc2)CC1)n1cccn1 (stereo not drawn) | -3.9%
Cc1cnn(C2CCCN(C(=O)Cc3c(C)nn(C)c3C)C2)c1 (stereo not drawn) | 0.294%
Cc1ncc2c(n1)CN(CC(=O)Nc1nnc(C)s1)CC2 | -8.66%
Cc1ncc2c(n1)CN(CC(=O)Nc1cc(C)on1)CC2 | -5.61%

SMILES | cytotoxicity at 70.5 h
COC(=O)c1ccc(N2CCN(CC(=O)NC(N)=O)C(C)C2)cc1 (stereo not drawn) | -3.82%
Cc1ccc(F)c(NS(=O)(=O)c2cc3c(c(C(=O)O)c2)OCCO3)c1 | 2.59%
O=C(O)c1cc(S(=O)(=O)Nc2ccc(F)cc2F)cc2c1OCCO2 | -2.86%
Cc1cc(F)ccc1NS(=O)(=O)c1cc2c(c(C(=O)O)c1)OCCO2 | -4.92%
Cn1ccnc1CN1CCCN(C(=O)c2ccc(O)nc2)CC1 | -4.72%
Cn1ccnc1CN1CCCN(C(=O)c2ccc3[nH]nnc3c2)CC1 | -4.07%
CCCc1n[nH]c(C2CN(C(=O)c3cccnc3N(C)C)CCO2)n1 (stereo not drawn) | -0.878%
CN1CC(C(=O)NCCOc2ccc3c(c2)OCO3)CC1=O (stereo not drawn) | -1.1%
Cn1ncc2c(=O)[nH]c(CN3CCCC3CC(C)(C)C)nc21 (stereo not drawn) | -4%
Cn1ncc2c(=O)[nH]c(CN3CCCC3CCc3ccccc3)nc21 (stereo not drawn) | -1.66%
CCn1cc(NC(=O)C2CCN(CC(=O)NC3CCCC3)CC2)cn1 | -0.528%
O=C(CCc1ccccc1F)N1CCC(Nc2cccnn2)CC1 | -1.09%
Cc1nc(C)n(CC2CCCN(c3ccc(C#N)cn3)C2)n1 (stereo not drawn) | -3.58%
O=C(c1csc(-c2ccccn2)n1)N1CCCC1Cn1cccn1 (stereo not drawn) | -2.56%
O=C(c1csc(C2CC2)n1)N1CCCCC1Cn1cccn1 (stereo not drawn) | 21.8%
Cc1cc(NC(=O)CN(C)C2CCCN(c3cccnn3)C2)on1 (stereo not drawn) | 23.1%
O=C(c1csc(-c2cnccn2)n1)N1CCCC1Cn1cccn1 (stereo not drawn) | 2.23%
O=C(c1csc(-c2ncccn2)n1)N1CCCC1Cn1cccn1 (stereo not drawn) | 22.5%
O=C(CCOc1ccccc1F)N1CCCCC1Cn1cccn1 (stereo not drawn) | -4.38%
Cc1nc(C)n(CC2CN(Cc3cc(C#N)ccc3F)CCO2)n1 (stereo not drawn) | -1.96%
Cc1nc(C)n(CC2CN(c3ncccc3C#N)CCO2)n1 (stereo not drawn) | -0.989%
CN(CC(=O)NCc1ccccn1)C1CCCN(c2cccnn2)C1 (stereo not drawn) | 0.301%
Cc1nccn1C1CCCN(C(=O)c2ccc3nnc(C)n3c2)C1 (stereo not drawn) | 14.1%

SMILES | cytotoxicity at 70.5 h
CC(C)(C)C(=O)NCCC(=O)N1CCC(Nc2cccnn2)CC1 | -0.84%
Cc1cccc(-c2nc(CNC3CCc4nc(C)nn4C3)no2)c1 (stereo not drawn) | -3.36%
CC(=O)N(Cc1ncc(C)o1)C1CCN(CCc2cccs2)C1 (stereo not drawn) | 17.8%
CCc1nc(CN(C(C)=O)C2CCN(CCc3cccs3)C2)no1 (stereo not drawn) | 13%
CC(C)(C)c1nc(CN2CCOC(Cn3cncn3)C2)cs1 (stereo not drawn) | 1.47%
CCOc1cc(C(=O)N2CCCC(c3noc(C(C)C)n3)C2)ccn1 (stereo not drawn) | -3.39%
CC(C)c1nc(CN2CCOC(Cn3cncn3)C2)cs1 (stereo not drawn) | -3.19%
COCCN1CCC(CNC(=O)C2(c3cc(C)cc(C)c3)CC2)CC1 | -1.48%
CCc1cnc(CN(C(C)=O)C2CCN(CC3(O)CCCCC3)C2)o1 (stereo not drawn) | 13.4%
COCCN1CCC(CNC(=O)C2(c3cccc(Cl)c3)CC2)C1 (stereo not drawn) | -0.451%
COCCN1CCC(CNC(=O)C2(c3ccccc3)CCOCC2)C1 (stereo not drawn) | -4.78%
COc1ccc(C2CCCN2Cc2ccc(S(=O)(=O)N(C)C)o2)cc1 (stereo not drawn) | -1.88%
O=C(CN1CCCC1Cn1cncn1)NCCOc1ccccc1 (stereo not drawn) | -2.53%
CN(C)S(=O)(=O)c1ccc(CN2CCCC2c2cccs2)o1 (stereo not drawn) | 15.3%
Cn1cc(-c2nc(CN3CCOC(Cn4cncn4)C3)cs2)cn1 (stereo not drawn) | 1.83%
CCOc1ccc(C(=O)N(Cc2cnn(C)c2)C(C)C)cc1OCC | -3.25%
CCCN1CCC(CNC(=O)C2(c3cc(C)cc(C)c3)CCC2)C1 (stereo not drawn) | 16.9%
CCc1cnc(CN(C(C)=O)C2CCN(CCc3ccncc3)C2)o1 (stereo not drawn) | -1.81%
COc1ccc(C2=CCN(C(=O)C3CCC3)CC2)cc1 | -1.58%
CN(C)C(=O)CCS(=O)(=O)Cc1cc(Cl)c2c(c1)OCO2 | -3.5%
COCCN1CCC(CNC(=O)C2(c3ccc(F)cc3)CCC2)CC1 | -0.878%
